Results: the supplement of paper PMC11208160

Test: recombinant barcode read abundance after kanamycin selection (control-corrected) (log10(CPM+1)); higher = more efficient recombination; sequences stand for … in AGTGCAGAGAAAATCGGCCAGTTTTCTCTGCCTGCAGTCCGCATGCCGT…AGATTTATGCAGCGGACTGCCTTTCTCCCAAAGTGATAAACCGGACAGTATCATGGACCGGTTTTCCCGGTAATCCGTATTTGCAAGGTTGGTTTCACT; site = the 11-nt target
In short: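 Recombination efficiency was calculated from barcode counts at recombinant junctions, normalized to counts per million, averaged and corrected by the control. Each value is given as log10(CPM+1). The constructs were Gibson-cloned oligos (promoter, target, barcode, J23119-driven first 104 bridge RNA bases) in a vector with the remaining 73 bp and a T7-inducible recombinase, co-electroporated into E. coli with a donor plasmid and plated in duplicate on chloramphenicol/ampicillin LB agar (control) or chloramphenicol/ampicillin/kanamycin with 0.1 mM IPTG.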
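Also: IS621 recombinase and bridge RNA in Escherichia coli cells.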

Sequence	recombinant barcode read abundance (log10)
CCACCGCCTTGGGTTCTAACCTGTTGCCT (site TCACCGCCTAG)	0.0912
CCACGTTCTTGGGTTCTAACCTGTTGCCT (site CCACGTTCTAG)	0.181
CCACGTTCTTGGGTTCTAACCTGTTGCCT (site CTACGTTCTAG)	0.0541
CCACTAGCTTGGGTTCTAACCTGTTGCAG (site AATGGGTCTAA)	0
CCACTAGCTTGGGTTCTAACCTGTTGCAG (site CCACTAGCTCT)	0.85
CCACTGCCTTGGGTTCTAACCTGTTGCCT (site CCACTACCTAG)	0.734
CCACTGCCTTGGGTTCTAACCTGTTGCCT (site CCACTCCCTAG)	0.229
CCACTGCCTTGGGTTCTAACCTGTTGCCT (site CCACTGCCTAG)	0.862
CCACTGCCTTGGGTTCTAACCTGTTGCCT (site CCACTTCCTAG)	0.0699
CCAGAGTCTTGGGTTCTAACCTGTTGCCG (site CCAGAGTCTCG)	0.288
CCAGAGTCTTGGGTTCTAACCTGTTGCCG (site CCAGAGTCTTG)	0.152
CCAGATTCTTGGGTTCTAACCTGTTGCCT (site CAAGATTCTAG)	0.154
CCAGATTCTTGGGTTCTAACCTGTTGCCT (site CCAGATTCTAG)	0.206
CCAGATTCTTGGGTTCTAACCTGTTGCCT (site CGAGATTCTAG)	0.297
CCAGATTCTTGGGTTCTAACCTGTTGCCT (site CTAGATTCTAG)	0.144
CCAGTAGCTTGGGTTCTAACCTGTTGCGG (site CCAGAAGCTAC)	0.0355
CCAGTAGCTTGGGTTCTAACCTGTTGCGG (site CCAGTAGCTCC)	1.01
CCAGTATCTTGGGTTCTAACCTGTTGCAT (site CCAGTATCTAT)	0.796
CCAGTATCTTGGGTTCTAACCTGTTGCAT (site TAGCGGCCTCC)	0.0866
CCATAGGCTTGGGTTCTAACCTGTTGCTG (site CCATAGGCTCA)	0.732
CCATAGGCTTGGGTTCTAACCTGTTGCTG (site GAGAGAACTAG)	0.0117
CCATATGCTTGGGTTCTAACCTGTTGCCT (site AACACGACTGA)	0.0524

Sequence	recombinant barcode read abundance (log10)
CCATATGCTTGGGTTCTAACCTGTTGCCT (site CCATATGCTAG)	0.148
CCATTCCCTTGGGTTCTAACCTGTTGCTA (site CCATTCCCTTA)	0.43
CCATTCCCTTGGGTTCTAACCTGTTGCTA (site TTGACGGCTAG)	0.0589
CCATTGTCTTGGGTTCTAACCTGTTGCCG (site CCATTGTCTCG)	0.124
CCATTGTCTTGGGTTCTAACCTGTTGCCG (site GTTAGAACTAA)	0.128
CCGAATTCTTGGGTTCTAACCTGTTGCTT (site CCGAATTCTAA)	0.113
CCGAATTCTTGGGTTCTAACCTGTTGCTT (site TACCCACCTCT)	0.00604
CCGAGTCCTTGGGTTCTAACCTGTTGCCT (site CCGAATCCTAG)	0.328
CCGAGTCCTTGGGTTCTAACCTGTTGCCT (site CCGACTCCTAG)	0.303
CCGAGTCCTTGGGTTCTAACCTGTTGCCT (site CCGAGTCCTAG)	0.246
CCGAGTCCTTGGGTTCTAACCTGTTGCCT (site CCGATTCCTAG)	1.2
CCGATATCTTGGGTTCTAACCTGTTGCCT (site CCGATATCTAG)	0.287
CCGATATCTTGGGTTCTAACCTGTTGCCT (site CCGCTATCTAG)	0.707
CCGATATCTTGGGTTCTAACCTGTTGCCT (site CCGGTATCTAG)	1.97
CCGATATCTTGGGTTCTAACCTGTTGCCT (site CCGTTATCTAG)	0.567
CCGCAGACTTGGGTTCTAACCTGTTGCCA (site CCGCAGACTTG)	0.0394
CCGCAGACTTGGGTTCTAACCTGTTGCCA (site TCGCAGACTAG)	0.0447
CCGCATACTTGGGTTCTAACCTGTTGCCT (site CAGCATACTAG)	0.0752
CCGCATACTTGGGTTCTAACCTGTTGCCT (site CCGCATACTAG)	0.277
CCGCATACTTGGGTTCTAACCTGTTGCCT (site CGGCATACTAG)	0.0516
CCGCATACTTGGGTTCTAACCTGTTGCCT (site CTGCATACTAG)	0.559
CCGCCGGCTTGGGTTCTAACCTGTTGCCT (site CCGCCAGCTAG)	0

Sequence	recombinant barcode read abundance (log10)
CCGCCGGCTTGGGTTCTAACCTGTTGCCT (site CCGCCCGCTAG)	0.222
CCGCCGGCTTGGGTTCTAACCTGTTGCCT (site CCGCCGGCTAG)	0.146
CCGCCGGCTTGGGTTCTAACCTGTTGCCT (site CCGCCTGCTAG)	0.0797
CCGCCTGCTTGGGTTCTAACCTGTTGCCT (site CCGCCAGCTAG)	0.293
CCGCCTGCTTGGGTTCTAACCTGTTGCCT (site CCGCCCGCTAG)	0.198
CCGCCTGCTTGGGTTCTAACCTGTTGCCT (site CCGCCGGCTAG)	0.24
CCGCCTGCTTGGGTTCTAACCTGTTGCCT (site CCGCCTGCTAG)	0.0789
CCGCGTCCTTGGGTTCTAACCTGTTGCTA (site CCGCCTCCTTC)	0.128
CCGCGTCCTTGGGTTCTAACCTGTTGCTA (site CCGCGTCCTTA)	0.111
CCGCTATCTTGGGTTCTAACCTGTTGCCT (site CCGATATCTAG)	0.199
CCGCTATCTTGGGTTCTAACCTGTTGCCT (site CCGCTATCTAG)	0.379
CCGCTATCTTGGGTTCTAACCTGTTGCCT (site CCGGTATCTAG)	0.104
CCGCTATCTTGGGTTCTAACCTGTTGCCT (site CCGTTATCTAG)	0.0555
CCGCTCGCTTGGGTTCTAACCTGTTGCCT (site CCGCTCGCTAG)	0.146
CCGCTCGCTTGGGTTCTAACCTGTTGCCT (site CCGCTTACTAG)	0.117
CCGTCGTCTTGGGTTCTAACCTGTTGCCT (site CCGTCATCTAG)	0.0517
CCGTCGTCTTGGGTTCTAACCTGTTGCCT (site CCGTCGTCTAG)	0.255
CCGTCTACTTGGGTTCTAACCTGTTGCCA (site CCGTCTACTTG)	0.121
CCGTCTACTTGGGTTCTAACCTGTTGCCA (site TAACTGTCTAA)	0.164
CCGTCTACTTGGGTTCTAACCTGTTGCTC (site CCGTCTACTAA)	0.0412
CCGTCTACTTGGGTTCTAACCTGTTGCTC (site CCGTCTACTCA)	0.209
CCGTCTACTTGGGTTCTAACCTGTTGCTC (site CCGTCTACTGA)	0.0724
